Test results taken from PMC10905675, “INX-315, a Selective CDK2 Inhibitor, Induces Cell Cycle Arrest and Senescence in Solid Tumors” (Cancer Discovery, 2023).

Tests used:
Assay in all cases: SelectScreen ZLYTE
Assay type in all cases: biochemical
Settings in all cases: INX-0315 at 100nM
PDGFRB (PDGFR beta) = biological target: T1, PDGFRB (PDGFR beta) (Homo sapiens, UniProt P09619)
T1 construct: purchased Thermo Fisher Scientific SelectScreen (plus Nanosyn / Reaction Biology for CDK/cyclin lines)
Outline: (§1)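 Activity and binding formats were run as established by the profiling service; INX-315 entered at one concentration (100 nmol/L, 1% DMSO) before titration over a 1 µmol/L–0.0495 nmol/L range in ten steps.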

EPHA4 = biological target: T2, EPHA4 (Homo sapiens, UniProt P54764)
T2 construct: purchased Thermo Fisher Scientific SelectScreen (plus Nanosyn / Reaction Biology for CDK/cyclin lines)
Outline: as §1

EEF2K = biological target: T3, EEF2K (Homo sapiens, UniProt O00418)
T3 construct: purchased Thermo Fisher Scientific SelectScreen (plus Nanosyn / Reaction Biology for CDK/cyclin lines)
Outline: as §1

PIM1 = biological target: T4, PIM1 (Homo sapiens, UniProt P11309)
T4 construct: purchased Thermo Fisher Scientific SelectScreen (plus Nanosyn / Reaction Biology for CDK/cyclin lines)
Outline: as §1

RET = biological target: T5, RET (Homo sapiens, UniProt P07949)
T5 construct: purchased Thermo Fisher Scientific SelectScreen (plus Nanosyn / Reaction Biology for CDK/cyclin lines)
Outline: as §1

BRAF V599E = biological target: T6, BRAF V599E (Homo sapiens, UniProt P15056, V600E)
T6 construct: purchased Thermo Fisher Scientific SelectScreen (plus Nanosyn / Reaction Biology for CDK/cyclin lines)
Outline: as §1

FGFR4 = biological target: T7, FGFR4 (Homo sapiens, UniProt P22455)
T7 construct: purchased Thermo Fisher Scientific SelectScreen (plus Nanosyn / Reaction Biology for CDK/cyclin lines)
Outline: as §1

RET A883F = biological target: T8, RET A883F (Homo sapiens, UniProt P07949, A883F)
T8 construct: purchased Thermo Fisher Scientific SelectScreen (plus Nanosyn / Reaction Biology for CDK/cyclin lines)
Outline: as §1

TNK1 = biological target: T9, TNK1 (Homo sapiens, UniProt Q13470)
T9 construct: purchased Thermo Fisher Scientific SelectScreen (plus Nanosyn / Reaction Biology for CDK/cyclin lines)
Outline: as §1

HIPK2 = biological target: T10, HIPK2 (Homo sapiens, UniProt Q9H2X6)
T10 construct: purchased Thermo Fisher Scientific SelectScreen (plus Nanosyn / Reaction Biology for CDK/cyclin lines)
Outline: as §1

TAOK2 (TAO1) = biological target: T11, TAOK2 (TAO1) (Homo sapiens, UniProt Q9UL54)
T11 construct: purchased Thermo Fisher Scientific SelectScreen (plus Nanosyn / Reaction Biology for CDK/cyclin lines)
Outline: as §1

AXL = biological target: T12, AXL (Homo sapiens, UniProt P30530)
T12 construct: purchased Thermo Fisher Scientific SelectScreen (plus Nanosyn / Reaction Biology for CDK/cyclin lines)
T12 sequence (P30530 26-894): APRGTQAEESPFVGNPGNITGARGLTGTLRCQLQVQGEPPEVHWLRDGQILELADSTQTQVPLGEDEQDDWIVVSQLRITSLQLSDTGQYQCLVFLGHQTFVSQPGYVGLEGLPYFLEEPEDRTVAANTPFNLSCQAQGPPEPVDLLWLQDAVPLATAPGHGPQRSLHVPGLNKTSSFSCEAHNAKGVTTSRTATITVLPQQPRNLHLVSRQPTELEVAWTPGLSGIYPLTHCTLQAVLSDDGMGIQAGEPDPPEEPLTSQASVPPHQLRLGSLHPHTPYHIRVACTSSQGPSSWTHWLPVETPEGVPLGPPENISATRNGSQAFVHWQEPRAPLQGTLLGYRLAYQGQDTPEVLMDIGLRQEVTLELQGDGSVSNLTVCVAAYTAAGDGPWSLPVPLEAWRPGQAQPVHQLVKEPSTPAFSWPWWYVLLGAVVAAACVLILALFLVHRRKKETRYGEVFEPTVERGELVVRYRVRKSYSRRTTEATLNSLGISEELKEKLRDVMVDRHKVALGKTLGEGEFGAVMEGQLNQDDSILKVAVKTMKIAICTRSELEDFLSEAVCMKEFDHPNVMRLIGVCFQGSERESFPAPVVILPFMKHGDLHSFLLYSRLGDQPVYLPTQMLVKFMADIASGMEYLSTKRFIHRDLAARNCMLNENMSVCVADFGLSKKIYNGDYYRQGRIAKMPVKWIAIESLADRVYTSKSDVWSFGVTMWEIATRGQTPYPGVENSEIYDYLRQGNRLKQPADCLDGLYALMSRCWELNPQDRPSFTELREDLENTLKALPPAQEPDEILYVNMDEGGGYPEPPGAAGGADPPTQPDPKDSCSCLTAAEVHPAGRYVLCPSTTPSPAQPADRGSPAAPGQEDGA
Outline: as §1

EGFR (ErbB1) T790M = biological target: T13, EGFR (ErbB1) T790M (Homo sapiens, UniProt P00533, T790M)
T13 construct: purchased Thermo Fisher Scientific SelectScreen (plus Nanosyn / Reaction Biology for CDK/cyclin lines)
Outline: as §1

RET Y791F = biological target: T14, RET Y791F (Homo sapiens, UniProt P07949, Y791F)
T14 construct: purchased Thermo Fisher Scientific SelectScreen (plus Nanosyn / Reaction Biology for CDK/cyclin lines)
Outline: as §1

STK22D (TSSK1) = biological target: T15, STK22D (TSSK1) (Homo sapiens, UniProt Q9BXA7)
T15 construct: purchased Thermo Fisher Scientific SelectScreen (plus Nanosyn / Reaction Biology for CDK/cyclin lines)
Outline: as §1

FLT3 = biological target: T16, FLT3 (Homo sapiens, UniProt P36888)
T16 construct: purchased Thermo Fisher Scientific SelectScreen (plus Nanosyn / Reaction Biology for CDK/cyclin lines)
T16 sequence (P36888 27-993): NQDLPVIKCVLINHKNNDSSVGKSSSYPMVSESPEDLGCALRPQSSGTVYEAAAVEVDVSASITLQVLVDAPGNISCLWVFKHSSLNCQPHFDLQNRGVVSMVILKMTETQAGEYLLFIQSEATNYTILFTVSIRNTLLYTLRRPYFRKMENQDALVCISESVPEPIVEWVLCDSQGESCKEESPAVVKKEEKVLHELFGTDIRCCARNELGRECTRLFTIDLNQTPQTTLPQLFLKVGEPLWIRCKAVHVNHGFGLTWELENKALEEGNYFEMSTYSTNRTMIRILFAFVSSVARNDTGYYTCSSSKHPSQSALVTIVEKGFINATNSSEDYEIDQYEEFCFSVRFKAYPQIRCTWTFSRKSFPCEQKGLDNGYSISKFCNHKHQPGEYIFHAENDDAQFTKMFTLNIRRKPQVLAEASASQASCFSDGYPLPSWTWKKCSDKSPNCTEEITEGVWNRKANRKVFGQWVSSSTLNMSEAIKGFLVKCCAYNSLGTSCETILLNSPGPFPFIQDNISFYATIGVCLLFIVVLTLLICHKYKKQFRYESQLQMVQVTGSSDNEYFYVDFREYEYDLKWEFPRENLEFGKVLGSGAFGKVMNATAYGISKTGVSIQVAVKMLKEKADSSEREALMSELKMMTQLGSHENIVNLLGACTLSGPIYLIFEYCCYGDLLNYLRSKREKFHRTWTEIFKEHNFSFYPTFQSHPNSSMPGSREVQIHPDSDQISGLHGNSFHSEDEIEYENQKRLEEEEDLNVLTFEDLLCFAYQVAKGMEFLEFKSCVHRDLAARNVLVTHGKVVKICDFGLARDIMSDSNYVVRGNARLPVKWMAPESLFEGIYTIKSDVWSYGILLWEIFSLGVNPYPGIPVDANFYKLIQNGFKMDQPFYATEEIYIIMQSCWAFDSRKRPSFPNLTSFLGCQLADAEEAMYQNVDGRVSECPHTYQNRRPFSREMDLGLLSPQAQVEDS
Outline: as §1

PEAK1 = biological target: T17, PEAK1 (Homo sapiens, UniProt Q9H792)
T17 construct: purchased Thermo Fisher Scientific SelectScreen (plus Nanosyn / Reaction Biology for CDK/cyclin lines)
T17 sequence (Q9H792 whole entry): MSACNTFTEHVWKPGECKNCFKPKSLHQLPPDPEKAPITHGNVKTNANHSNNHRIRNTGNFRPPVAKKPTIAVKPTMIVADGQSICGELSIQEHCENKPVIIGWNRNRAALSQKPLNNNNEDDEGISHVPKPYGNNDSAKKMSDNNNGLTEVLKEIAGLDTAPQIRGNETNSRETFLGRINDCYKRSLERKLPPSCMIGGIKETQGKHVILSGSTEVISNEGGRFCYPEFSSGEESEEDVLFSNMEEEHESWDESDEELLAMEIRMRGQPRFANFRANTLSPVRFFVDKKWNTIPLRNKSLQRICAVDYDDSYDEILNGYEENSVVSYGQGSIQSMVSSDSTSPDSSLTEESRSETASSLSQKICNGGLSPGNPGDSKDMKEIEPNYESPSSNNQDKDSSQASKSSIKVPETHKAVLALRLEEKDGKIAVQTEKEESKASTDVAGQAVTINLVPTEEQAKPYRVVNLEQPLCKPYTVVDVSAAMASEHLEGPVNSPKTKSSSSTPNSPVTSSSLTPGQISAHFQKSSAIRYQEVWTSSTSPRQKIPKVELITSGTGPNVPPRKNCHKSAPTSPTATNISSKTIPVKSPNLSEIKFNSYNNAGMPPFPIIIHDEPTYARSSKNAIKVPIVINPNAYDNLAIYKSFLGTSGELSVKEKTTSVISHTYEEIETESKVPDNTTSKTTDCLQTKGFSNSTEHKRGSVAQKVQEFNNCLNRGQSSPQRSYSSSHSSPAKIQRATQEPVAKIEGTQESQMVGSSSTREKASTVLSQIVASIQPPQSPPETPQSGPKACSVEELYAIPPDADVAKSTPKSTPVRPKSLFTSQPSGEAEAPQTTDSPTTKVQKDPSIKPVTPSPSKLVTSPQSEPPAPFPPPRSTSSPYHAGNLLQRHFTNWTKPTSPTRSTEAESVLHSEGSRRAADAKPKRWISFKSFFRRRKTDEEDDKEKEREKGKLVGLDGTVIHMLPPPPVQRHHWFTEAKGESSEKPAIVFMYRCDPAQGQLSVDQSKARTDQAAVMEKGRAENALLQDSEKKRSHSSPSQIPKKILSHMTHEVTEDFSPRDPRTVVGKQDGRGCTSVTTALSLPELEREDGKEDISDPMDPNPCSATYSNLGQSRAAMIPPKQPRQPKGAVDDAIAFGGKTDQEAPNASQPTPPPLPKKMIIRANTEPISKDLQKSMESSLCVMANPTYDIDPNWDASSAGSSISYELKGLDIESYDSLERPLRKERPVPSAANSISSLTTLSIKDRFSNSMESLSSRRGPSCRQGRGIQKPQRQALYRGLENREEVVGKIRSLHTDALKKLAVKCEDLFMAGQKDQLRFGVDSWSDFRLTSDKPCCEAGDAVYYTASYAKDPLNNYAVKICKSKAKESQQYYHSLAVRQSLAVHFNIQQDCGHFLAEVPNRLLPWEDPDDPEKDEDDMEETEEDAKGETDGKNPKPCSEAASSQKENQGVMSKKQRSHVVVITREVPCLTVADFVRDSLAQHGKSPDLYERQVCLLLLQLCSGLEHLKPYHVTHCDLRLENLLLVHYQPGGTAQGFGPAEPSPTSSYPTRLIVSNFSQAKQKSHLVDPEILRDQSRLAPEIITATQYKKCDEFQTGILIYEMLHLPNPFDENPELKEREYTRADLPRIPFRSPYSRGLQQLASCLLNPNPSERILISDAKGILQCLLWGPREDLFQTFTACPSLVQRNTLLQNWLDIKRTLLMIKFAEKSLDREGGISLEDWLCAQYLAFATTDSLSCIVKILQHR
Outline: as §1

MST1R (RON) = biological target: T18, MST1R (RON) (Homo sapiens, UniProt Q04912)
T18 construct: purchased Thermo Fisher Scientific SelectScreen (plus Nanosyn / Reaction Biology for CDK/cyclin lines)
Outline: as §1

BTK = biological target: T19, BTK (Homo sapiens, UniProt Q06187)
T19 construct: purchased Thermo Fisher Scientific SelectScreen (plus Nanosyn / Reaction Biology for CDK/cyclin lines)
Outline: as §1

CSNK1A1L = biological target: T20, CSNK1A1L (Homo sapiens, UniProt Q8N752)
T20 construct: purchased Thermo Fisher Scientific SelectScreen (plus Nanosyn / Reaction Biology for CDK/cyclin lines)
T20 sequence (Q8N752 whole entry): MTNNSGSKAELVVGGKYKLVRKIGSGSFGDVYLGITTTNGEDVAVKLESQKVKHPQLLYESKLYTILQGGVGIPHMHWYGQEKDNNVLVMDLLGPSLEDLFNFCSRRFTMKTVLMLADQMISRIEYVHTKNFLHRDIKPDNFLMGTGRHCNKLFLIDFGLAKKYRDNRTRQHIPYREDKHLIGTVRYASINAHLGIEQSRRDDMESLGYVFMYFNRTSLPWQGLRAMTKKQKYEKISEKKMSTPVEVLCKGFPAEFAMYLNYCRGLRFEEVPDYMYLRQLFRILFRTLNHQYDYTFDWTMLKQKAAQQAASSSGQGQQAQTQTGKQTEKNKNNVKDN
Outline: as §1

RPS6KA3 (RSK2) = biological target: T21, RPS6KA3 (RSK2) (Homo sapiens, UniProt P51812)
T21 construct: purchased Thermo Fisher Scientific SelectScreen (plus Nanosyn / Reaction Biology for CDK/cyclin lines)
Outline: as §1

FGFR1 = biological target: T22, FGFR1 (Homo sapiens, UniProt P11362)
T22 construct: purchased Thermo Fisher Scientific SelectScreen (plus Nanosyn / Reaction Biology for CDK/cyclin lines)
Outline: as §1

EGFR (ErbB1) L861Q = biological target: T23, EGFR (ErbB1) L861Q (Homo sapiens, UniProt P00533, L861Q)
T23 construct: purchased Thermo Fisher Scientific SelectScreen (plus Nanosyn / Reaction Biology for CDK/cyclin lines)
Outline: as §1

PRKCQ (PKC theta) = biological target: T24, PRKCQ (PKC theta) (Homo sapiens, UniProt Q04759)
T24 construct: purchased Thermo Fisher Scientific SelectScreen (plus Nanosyn / Reaction Biology for CDK/cyclin lines)
Outline: as §1

CDK18/cyclin Y = biological target: T25, CDK18/cyclin Y (Homo sapiens, UniProt Q07002)
T25 construct: purchased Thermo Fisher Scientific SelectScreen (plus Nanosyn / Reaction Biology for CDK/cyclin lines)
T25 sequence (Q07002 whole entry): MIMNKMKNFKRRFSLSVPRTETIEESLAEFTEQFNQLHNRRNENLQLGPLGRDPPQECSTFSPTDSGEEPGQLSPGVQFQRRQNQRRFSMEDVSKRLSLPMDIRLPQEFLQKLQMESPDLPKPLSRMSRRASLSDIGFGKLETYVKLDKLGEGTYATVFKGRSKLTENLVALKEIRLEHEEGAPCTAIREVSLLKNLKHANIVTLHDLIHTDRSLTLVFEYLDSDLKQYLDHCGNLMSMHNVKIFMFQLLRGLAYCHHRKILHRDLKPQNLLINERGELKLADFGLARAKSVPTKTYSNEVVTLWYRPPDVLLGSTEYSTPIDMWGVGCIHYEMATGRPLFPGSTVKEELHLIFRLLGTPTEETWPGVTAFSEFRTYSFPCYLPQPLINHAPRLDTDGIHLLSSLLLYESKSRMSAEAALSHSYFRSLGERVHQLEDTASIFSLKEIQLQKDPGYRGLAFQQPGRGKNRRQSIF
T25 sequence (Q8ND76 whole entry partner): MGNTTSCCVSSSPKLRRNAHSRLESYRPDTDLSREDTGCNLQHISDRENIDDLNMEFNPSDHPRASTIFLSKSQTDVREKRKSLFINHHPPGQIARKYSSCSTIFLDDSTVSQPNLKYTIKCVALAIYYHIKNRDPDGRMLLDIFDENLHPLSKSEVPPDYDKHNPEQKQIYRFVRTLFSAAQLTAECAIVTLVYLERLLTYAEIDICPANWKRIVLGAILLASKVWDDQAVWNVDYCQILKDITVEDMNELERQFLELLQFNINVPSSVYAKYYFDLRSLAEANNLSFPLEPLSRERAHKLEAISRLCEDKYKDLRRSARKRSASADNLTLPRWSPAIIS
Outline: as §1

PTK2B (FAK2) = biological target: T26, PTK2B (FAK2) (Homo sapiens, UniProt Q14289)
T26 construct: purchased Thermo Fisher Scientific SelectScreen (plus Nanosyn / Reaction Biology for CDK/cyclin lines)
Outline: as §1

MAP2K6 (MKK6) = biological target: T27, MAP2K6 (MKK6) (Homo sapiens, UniProt P52564)
T27 construct: purchased Thermo Fisher Scientific SelectScreen (plus Nanosyn / Reaction Biology for CDK/cyclin lines)
T27 sequence (P52564 whole entry): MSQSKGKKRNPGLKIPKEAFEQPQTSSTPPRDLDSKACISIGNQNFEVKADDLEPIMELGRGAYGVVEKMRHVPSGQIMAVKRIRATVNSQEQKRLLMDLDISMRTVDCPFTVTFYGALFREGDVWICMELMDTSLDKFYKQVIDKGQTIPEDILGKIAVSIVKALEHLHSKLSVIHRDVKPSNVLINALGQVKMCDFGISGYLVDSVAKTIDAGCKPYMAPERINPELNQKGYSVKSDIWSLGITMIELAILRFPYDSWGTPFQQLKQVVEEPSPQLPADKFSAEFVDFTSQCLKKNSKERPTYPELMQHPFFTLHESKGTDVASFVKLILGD
Outline: as §1

CDKL5 = biological target: T28, CDKL5 (Homo sapiens, UniProt O76039)
T28 construct: purchased Thermo Fisher Scientific SelectScreen (plus Nanosyn / Reaction Biology for CDK/cyclin lines)
Outline: as §1

SRC = biological target: T29, SRC (Homo sapiens, UniProt P12931)
T29 construct: purchased Thermo Fisher Scientific SelectScreen (plus Nanosyn / Reaction Biology for CDK/cyclin lines)
Outline: as §1

PDK1 Direct = biological target: T30, PDK1 Direct (Homo sapiens, UniProt O15530)
T30 construct: purchased Thermo Fisher Scientific SelectScreen (plus Nanosyn / Reaction Biology for CDK/cyclin lines)
Outline: as §1

KIT V559D V654A = biological target: T31, KIT V559D V654A (Homo sapiens, UniProt P10721, V559D/V654A)
T31 construct: purchased Thermo Fisher Scientific SelectScreen (plus Nanosyn / Reaction Biology for CDK/cyclin lines)
Outline: as §1

BLK = biological target: T32, BLK (Homo sapiens, UniProt P51451)
T32 construct: purchased Thermo Fisher Scientific SelectScreen (plus Nanosyn / Reaction Biology for CDK/cyclin lines)
Outline: as §1

EGFR (ErbB1) C797S = biological target: T33, EGFR (ErbB1) C797S (Homo sapiens, UniProt P00533, C797S)
T33 construct: purchased Thermo Fisher Scientific SelectScreen (plus Nanosyn / Reaction Biology for CDK/cyclin lines)
Outline: as §1

CSNK1E (CK1 epsilon) = biological target: T34, CSNK1E (CK1 epsilon) (Homo sapiens, UniProt P49674)
T34 construct: purchased Thermo Fisher Scientific SelectScreen (plus Nanosyn / Reaction Biology for CDK/cyclin lines)
Outline: as §1

SNF1LK2 = biological target: T35, SNF1LK2 (Homo sapiens, UniProt Q9H0K1)
T35 construct: purchased Thermo Fisher Scientific SelectScreen (plus Nanosyn / Reaction Biology for CDK/cyclin lines)
Outline: as §1

MAP3K9 (MLK1) = biological target: T36, MAP3K9 (MLK1) (Homo sapiens, UniProt P80192)
T36 construct: purchased Thermo Fisher Scientific SelectScreen (plus Nanosyn / Reaction Biology for CDK/cyclin lines)
Outline: as §1

ABL1 = biological target: T37, ABL1 (Homo sapiens, UniProt P00519)
T37 construct: purchased Thermo Fisher Scientific SelectScreen (plus Nanosyn / Reaction Biology for CDK/cyclin lines)
Outline: as §1

Which results are given for `NS(=O)(=O)c1ccc(Nc2ncc3cc4n(c3n2)C2(CCCCC2)C(=O)NN4)cc1` [INX-315]?
inhibition at 0.1 µM (PDGFRB (PDGFR beta)): 25%; inhibition at 0.1 µM (EPHA4): 5%; inhibition at 0.1 µM (EEF2K): 4%; inhibition at 0.1 µM (PIM1): 1%; inhibition at 0.1 µM (RET): 58%; inhibition at 0.1 µM (BRAF V599E): 7%; inhibition at 0.1 µM (FGFR4): 2%; inhibition at 0.1 µM (RET A883F): 22%; inhibition at 0.1 µM (TNK1): 14%; inhibition at 0.1 µM (HIPK2): 5%; inhibition at 0.1 µM (TAOK2 (TAO1)): 10%; inhibition at 0.1 µM (AXL): 17%; inhibition at 0.1 µM (EGFR (ErbB1) T790M): 5%; inhibition at 0.1 µM (RET Y791F): 50%; inhibition at 0.1 µM (STK22D (TSSK1)): 11%; inhibition at 0.1 µM (FLT3): 40%; inhibition at 0.1 µM (PEAK1): 10%; inhibition at 0.1 µM (MST1R (RON)): 2%; inhibition at 0.1 µM (BTK): 10%; inhibition at 0.1 µM (CSNK1A1L): 4%; inhibition at 0.1 µM (RPS6KA3 (RSK2)): 27%; inhibition at 0.1 µM (FGFR1): 4%; inhibition at 0.1 µM (EGFR (ErbB1) L861Q): 3%; inhibition at 0.1 µM (PRKCQ (PKC theta)): 8%; inhibition at 0.1 µM (CDK18/cyclin Y): 9%; inhibition at 0.1 µM (PTK2B (FAK2)): 5%; inhibition at 0.1 µM (MAP2K6 (MKK6)): 3%; inhibition at 0.1 µM (CDKL5): -1%; inhibition at 0.1 µM (SRC): 8%; inhibition at 0.1 µM (PDK1 Direct): 8%; inhibition at 0.1 µM (KIT V559D V654A): 7%; inhibition at 0.1 µM (BLK): 11%; inhibition at 0.1 µM (EGFR (ErbB1) C797S): -8%; inhibition at 0.1 µM (CSNK1E (CK1 epsilon)): -5%; inhibition at 0.1 µM (SNF1LK2): 18%; inhibition at 0.1 µM (MAP3K9 (MLK1)): 22%; inhibition at 0.1 µM (ABL1): 14%
